According to US20250375540A1, “FIBROBLAST ACTIVATION PROTEIN TARGETING PRECURSOR AND RADIOTRACER” (ITM ONCOLOGICS GMBH, priority 2022, published 2025):

Columns and labels:
FAP [1] = target: T1, FAP (Homo sapiens, UniProt Q12884); assay: Affinity to FAP (IC50); type: biochemical; settings: for affinity to FAP, in words: compared with reference (F) and gold standard (G); for selectivity for FAP over PREP, in words: relative to (G) UAMC1110; for S = PREP IC50/FAP IC50: selectivity FAP over PREP; for SF = S relative to UAMC1110: selectivity factor relative to UAMC1110
T1 sequence (Q12884 1-760): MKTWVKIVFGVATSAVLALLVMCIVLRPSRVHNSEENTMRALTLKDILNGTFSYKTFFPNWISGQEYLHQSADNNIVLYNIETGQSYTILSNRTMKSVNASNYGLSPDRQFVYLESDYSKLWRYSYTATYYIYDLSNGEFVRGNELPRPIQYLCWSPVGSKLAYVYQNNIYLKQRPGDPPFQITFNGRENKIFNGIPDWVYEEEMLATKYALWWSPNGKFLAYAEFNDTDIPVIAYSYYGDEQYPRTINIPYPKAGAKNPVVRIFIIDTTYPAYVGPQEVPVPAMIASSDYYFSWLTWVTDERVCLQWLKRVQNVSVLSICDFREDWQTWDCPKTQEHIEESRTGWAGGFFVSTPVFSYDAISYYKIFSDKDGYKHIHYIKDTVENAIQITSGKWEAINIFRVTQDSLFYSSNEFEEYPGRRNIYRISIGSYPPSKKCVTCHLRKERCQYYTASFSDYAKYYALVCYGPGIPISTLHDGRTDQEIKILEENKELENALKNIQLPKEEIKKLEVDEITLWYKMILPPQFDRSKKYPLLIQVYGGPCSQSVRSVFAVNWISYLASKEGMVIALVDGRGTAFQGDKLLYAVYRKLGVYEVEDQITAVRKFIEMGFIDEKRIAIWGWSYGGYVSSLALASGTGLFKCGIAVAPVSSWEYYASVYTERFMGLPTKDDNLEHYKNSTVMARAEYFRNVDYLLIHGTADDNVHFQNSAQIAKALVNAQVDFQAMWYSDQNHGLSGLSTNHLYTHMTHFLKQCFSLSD

PREP = target: T2, PREP (Homo sapiens, UniProt P48147); assay: Affinity to PREP (IC50); type: biochemical; settings: for binding to off-target PREP, in words: compared with reference (F) and (G)
T2 sequence (P48147 1-710): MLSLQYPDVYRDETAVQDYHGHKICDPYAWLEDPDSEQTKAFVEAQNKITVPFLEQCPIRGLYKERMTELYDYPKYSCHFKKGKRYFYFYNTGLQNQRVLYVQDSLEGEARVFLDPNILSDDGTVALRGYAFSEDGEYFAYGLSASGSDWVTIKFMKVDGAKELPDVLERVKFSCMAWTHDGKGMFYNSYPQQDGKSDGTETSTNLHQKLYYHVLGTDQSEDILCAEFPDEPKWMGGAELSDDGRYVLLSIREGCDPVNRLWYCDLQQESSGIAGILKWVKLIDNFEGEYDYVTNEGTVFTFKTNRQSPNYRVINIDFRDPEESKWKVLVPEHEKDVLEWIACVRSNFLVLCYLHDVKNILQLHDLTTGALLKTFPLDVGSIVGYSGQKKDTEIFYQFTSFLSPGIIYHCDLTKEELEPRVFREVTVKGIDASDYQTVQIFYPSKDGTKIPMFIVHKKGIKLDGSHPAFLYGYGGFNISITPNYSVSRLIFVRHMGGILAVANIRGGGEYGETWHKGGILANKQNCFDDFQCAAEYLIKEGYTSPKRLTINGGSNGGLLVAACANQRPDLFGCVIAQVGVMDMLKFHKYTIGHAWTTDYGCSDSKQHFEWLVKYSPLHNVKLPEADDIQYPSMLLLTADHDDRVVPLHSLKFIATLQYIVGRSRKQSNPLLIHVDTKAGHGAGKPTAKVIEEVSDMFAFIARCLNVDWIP
Source text: Beneath Table 1 presents measured affinities to FAP and PREP for the inventive precursor compounds 1-4 and reference compound 5 as well as the original FAP inhibitor UAMC1110 as the current gold standard.

FAP [2] = target: T1, FAP; settings: background statement; cited from earlier work
DPP4 = DPP4 (Homo sapiens, UniProt P27487); settings: background statement; cited from earlier work
DPP4, sequence (P27487 whole entry): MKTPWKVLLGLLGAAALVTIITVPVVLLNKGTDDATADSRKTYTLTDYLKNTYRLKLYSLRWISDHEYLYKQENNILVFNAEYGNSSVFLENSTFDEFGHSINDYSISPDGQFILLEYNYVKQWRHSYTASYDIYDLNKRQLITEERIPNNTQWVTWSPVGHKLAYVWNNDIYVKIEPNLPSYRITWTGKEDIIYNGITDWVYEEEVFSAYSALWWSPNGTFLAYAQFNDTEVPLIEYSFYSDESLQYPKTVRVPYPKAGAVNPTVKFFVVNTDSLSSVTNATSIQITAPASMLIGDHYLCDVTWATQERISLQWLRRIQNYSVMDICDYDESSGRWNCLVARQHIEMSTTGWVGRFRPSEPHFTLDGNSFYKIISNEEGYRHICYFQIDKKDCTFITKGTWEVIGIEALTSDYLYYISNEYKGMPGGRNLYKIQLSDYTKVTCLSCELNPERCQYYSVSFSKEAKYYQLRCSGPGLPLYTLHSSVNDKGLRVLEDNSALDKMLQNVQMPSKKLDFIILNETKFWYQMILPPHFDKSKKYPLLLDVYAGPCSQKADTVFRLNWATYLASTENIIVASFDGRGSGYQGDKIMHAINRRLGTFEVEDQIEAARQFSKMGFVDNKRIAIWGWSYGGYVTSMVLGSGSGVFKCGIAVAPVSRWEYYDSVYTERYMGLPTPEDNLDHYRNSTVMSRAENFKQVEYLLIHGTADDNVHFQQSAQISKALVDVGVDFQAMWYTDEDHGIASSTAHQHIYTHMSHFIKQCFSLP

Compound	IC50 (FAP [1]) [nM]	selectivity for FAP over PREP, in words (FAP [1])	S = PREP IC50/FAP IC50 (FAP [1])	SF = S relative to UAMC1110 (FAP [1])	IC50 (PREP) [nM]	affinity to FAP, in words (FAP [1])	binding to off-target PREP, in words (PREP)	FAP affinity (FAP [2])	DPP4 affinity (DPP4)
CN(CC(=O)O)C1(CCCCC(=O)NCCCCOc2ccc3nccc(C(=O)NCC(=O)N4CC(F)(F)C[C@H]4C#N)c3c2)CN(CC(=O)O)CCN(CC(=O)O)C1 [Compound (A), (S)-2,2′-(6-((carboxymethyl)(methyl)amino)-6-(5-((4-((4-((2-(2-cyano-4,4-difluoropyrrolidin-1-yl)-2-oxoethyl)carbamoyl)quinolin-6-yl)oxy)butyl)amino)-5-oxopentyl)-1,4-diazepane-1,4-diyl)diacetic Acid]	0.27 ± 0.02	six times that of (G)	23.7 × 10^3	5.6	6400 ± 400	higher affinity to FAP than reference compound (F) and the UAMC1110 gold standard (G)	reduced binding to off-target PREP compared to reference (F) and (G)	–	–
N#C[C@@H]1CC(F)(F)CN1C(=O)CNC(=O)c1ccnc2ccccc12 [(G), (S)-N-(2-(2-cyano-4,4-difluoropyrrolidin-1-yl)-2-oxoethyl)quinoline-4-carboxamide]	–	–	–	–	–	–	–	low nM range	μM range

Continued by falling IC50 (FAP [1]), values first:

IC50 (FAP [1]) [nM]	selectivity for FAP over PREP, in words (FAP [1])	S = PREP IC50/FAP IC50 (FAP [1])	SF = S relative to UAMC1110 (FAP [1])	IC50 (PREP) [nM]	Compound	affinity to FAP, in words (FAP [1])	binding to off-target PREP, in words (PREP)	FAP affinity (FAP [2])	DPP4 affinity (DPP4)
0.31 ± 0.02	twice that of (G)	8.4 × 10^3	2.0	2600 ± 300	CN(CC(=O)NCCCCOc1ccc2nccc(C(=O)NCC(=O)N3CC(F)(F)C[C@H]3C#N)c2c1)[C@H]1CCN(C(=O)CCCCC2(N(C)CC(=O)O)CN(CC(=O)O)CCN(CC(=O)O)C2)C1 [(E), 2,2′-(6-((carboxymethyl)(methyl)amino)-6-(5-((S)-3-((2-((4-((4-((2-((S)-2-cyano-4,4-difluoropyrrolidin-1-yl)-2-oxoethyl)carbamoyl)quinolin-6-yl)oxy)butyl)amino)-2-oxoethyl)(methyl)amino)pyrrolidin-1-yl)-5-oxopentyl)-1,4-diazepane-1,4-diyl)diacetic Acid]	higher affinity to FAP than reference compound (F) and the UAMC1110 gold standard (G)	reduced binding to off-target PREP compared to reference (F) and (G)	–	–
0.28 ± 0.02	three times higher than that of (G)	11.8 × 10^3	2.8	3300 ± 200	CN(CC(=O)O)C1(CCCCC(=O)N[C@H]2CCN(CC(=O)NCCCCOc3ccc4nccc(C(=O)NCC(=O)N5CC(F)(F)C[C@H]5C#N)c4c3)C2)CN(CC(=O)O)CCN(CC(=O)O)C1 [(D), 2,2′-(6-((carboxymethyl)(methyl)amino)-6-(5-(((S)-1-(2-((4-((4-((2-((S)-2-cyano-4,4-difluoropyrrolidin-1-yl)-2-oxoethyl)carbamoyl)quinolin-6-yl)oxy)butyl)amino)-2-oxoethyl)pyrrolidin-3-yl)amino)-5-oxopentyl)-1,4-diazepane-1,4-diyl)diacetic Acid]	higher affinity to FAP than reference compound (F) and the UAMC1110 gold standard (G)	reduced binding to off-target PREP compared to reference (F) and (G)	–	–
0.27 ± 0.01	–	5.6 × 10^3	1.3	1500 ± 300	CN(CC(=O)O)C1(CCCCC(=O)N2CCN(CC(=O)NCCCCOc3ccc4nccc(C(=O)NCC(=O)N5CC(F)(F)C[C@H]5C#N)c4c3)CC2)CN(CC(=O)O)CCN(CC(=O)O)C1 [Compound (B), (S)-2,2′-(6-((carboxymethyl)(methyl)amino)-6-(5-(4-(2-((4-((4-((2-(2-cyano-4,4-difluoropyrrolidin-1-yl)-2-oxoethyl)carbamoyl)quinolin-6-yl)oxy)butyl)amino)-2-oxoethyl)piperazin-1-yl)-5-oxopentyl)-1,4-diazepane-1,4-diyl)diacetic Acid]	higher affinity to FAP than reference compound (F) and the UAMC1110 gold standard (G)	comparable to (F) and (G)	–	–
